Results taken from patent publication US11835532B2, “Green concentrated reagent for hemotology systems” (priority 2018, dated 2023).

Test: Response of test reagent pools to osmolality, conductivity and pH adjusters
Type: physicochemical
Protocol: Assays were performed to characterize the response of the test reagents according to Table 2 to adjustments targeting changes to the pH, osmolality and conductivity of the reagent test pools.
Each of the test pools were adjusted for osmolality and conductivity with different chemicals, for example, sodium chloride, sodium sulfate, potassium sulfate, potassium bisulfate, imidazole and sodium phosphate monobasic. Adjusting for osmolality or conductivity parameters impacts all three parameters of pH, conductivity and osmolality.
Variation of pH, conductivity and osmolality was observed by adding increasing amounts of each adjuster to a test reagent pool. Amounts of each adjuster to achieve target midpoint were established. The target pH, osmolality and conductivity were pH 7.02-7.20, target osmolality 315-360 mOsm/Kg, and target conductivity 19.05-20.00 mS/cm.
All pH, conductivity and osmolality adjusters functioned as expected with no precipitation.

[1] = osmolality and conductivity adjuster added to working concentration reagent
[2] = pH adjuster added to working concentration reagent

SMILES	▴ Conductivity [1]	▴ Osmolality [1]	▴ pH/gm [1]	Osmolality change per gram of adjuster [2]	▴ Conductivity [2]	▴ pH/gm [2]
O=S(=O)([O-])[O-].[Na+].[Na+] [Sodium Sulfate]	+0.88 mS/cm/gm	+14.1 mOsm/kg/gm	+0.01	–	–	–
[Na+].[OH-] [50% Sodium Hydroxide]	–	–	–	+13.7 mOsm/kg/gm	+0.38 mS/cm/gm	+0.39
Cl [6N Hydrochloric Acid]	–	–	–	+7.0 mOsm/kg/gm	+0.33 mS/cm/gm	−0.16
O=P([O-])(O)O.[Na+] [Sodium Phosphate Mono]	–	–	–	+12.0 mOsm/kg/gm	+0.46 mS/cm/gm	−0.14
c1c[nH]cn1 [Imidazole]	–	–	–	+24.9 mOsm/kg/gm	+0.28 mS/cm/gm	+0.21
[Cl-].[Na+] [Sodium Chloride]	+1.61 mS/cm/gm	+29.2 mOsm/kg/gm	0.00	–	–	–
O=S(=O)([O-])[O-].[K+].[K+] [Potassium Sulfate]	+1.07 mS/cm/gm	+11.9 mOsm/kg/gm	+0.02	–	–	–
